Assays:
PAT/Cry1F Arabidopsis = test: Glyphosate postemergence dose response, PAT/Cry1F control; format: in vivo, Arabidopsis thaliana; details: 14 DAT
Experimental: (§1) T1 Arabidopsis seed was produced, as previously described, containing the pDAB3759 plasmid (AAD-12 (v1)+EPSPS) which encodes a putative glyphosate resistance trait. T1 transformants were selected using AAD-12 (v1) as the selectable marker as described in example 7.6. T1 plants (individually transformed events) were recovered from the first selection attempt and transferred to three-inch pots in the greenhouse as previously described. Three different control Arabidopsis lines were also tested: wildtype Columbia-0, AAD-12 (v1)+PAT T4 homozygous lines (pDAB724-transformed), and PAT+Cry1F homozygous line (transformed control). The pDAB3759 and pDAB724 transformed plants were pre-selected at the seedling stage for 2,4-D tolerance. Four days after transplanting, plants were evenly divided for foliar treatment by track sprayer as previously described with 0, 26.25, 105, 420, or 1680 g ae/ha glyphosate (Glyphomax Plus, Dow AgroSciences) in water. All treatments were replicated 5 to 20 times. Plants were evaluated 7 and 14 days after treatment.

[1] = test system: Wildtype (Col-0) Arabidopsis; test: Glyphosate postemergence dose response, wildtype; format: in vivo, Arabidopsis thaliana; details: 14 DAT
Experimental: as §1

[2] = test system: AAD-12 v1 gene + EPSPS + HptII (pDAB3759) T1 Arabidopsis; test: Glyphosate postemergence dose response, AAD-12 + EPSPS stack; format: in vivo, Arabidopsis thaliana; details: 14 DAT
Experimental: as §1

[3] = test system: pDAB724 T4 (PAT + AAD-12) Arabidopsis; test: Glyphosate postemergence dose response, pDAB724 T4; format: in vivo, Arabidopsis thaliana; details: 14 DAT
Experimental: as §1

AAD-12 (v2) = target: T1, AAD-12 (v2) (Delftia acidovorans, UniProt P83309); test: Chloropyridinol detection assay (absorbance at 325 nm); format: biochemical; details: 6.8 μg AAD-12 (v2), 1 mM substrate; for Rate (mAU/min): 325 nm, background rate 1.4 mAU/min subtracted
T1 construct: made in house; host or cells: Pseudomonas fluorescens strain MB324 (construct pDAB739)
Source text: AAD-12 action on potential substrates such as the herbicide triclopyr containing a substituted pyridine (rather than benzene rings) will release a pyridinol on cleavage of the aryloxyalkanoate bond. Pyridinols were not detected using the aminoantipyrine/ferricyanide phenol detection described in the preceding section. […] This was used to create a continuous microplate-based spectrophotometric assay.
All five pyridyloxyalkanoates were cleaved to release pyridinols by AAD-12 (v2). The rates for the oxypropionate substrates 116844 and 91767 were somewhat faster than those for the corresponding acetates (triclopyr and 93833 respectively) indicating a preference of AAD-12 (v2) for oxypropionate over oxyacetate side chains.

[4] = 26.25 g ae/ha glyphosate postemergence
[5] = 105 g ae/ha glyphosate postemergence
[6] = 420 g ae/ha glyphosate postemergence
[7] = 1680 g ae/ha glyphosate postemergence

T1 sequence (P83309 whole entry, looked up, natural form): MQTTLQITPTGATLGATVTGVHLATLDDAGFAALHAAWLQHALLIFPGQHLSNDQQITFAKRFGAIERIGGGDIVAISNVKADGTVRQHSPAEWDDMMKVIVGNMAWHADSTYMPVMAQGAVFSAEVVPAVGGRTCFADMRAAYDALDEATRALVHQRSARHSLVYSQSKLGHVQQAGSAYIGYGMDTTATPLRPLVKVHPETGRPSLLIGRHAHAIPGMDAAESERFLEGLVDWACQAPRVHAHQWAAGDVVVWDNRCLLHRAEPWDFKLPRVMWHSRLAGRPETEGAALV

Compound: O=C(O)CNCP(=O)(O)O [glyphosate]
- % Injury 20-40% (number of individuals) (PAT/Cry1F Arabidopsis; [4]): 0
- % Injury <20% (number of individuals) (PAT/Cry1F Arabidopsis; [4]): 0
- % Injury >40% (number of individuals) (PAT/Cry1F Arabidopsis; [4]): 5
- % Injury Ave (PAT/Cry1F Arabidopsis; [4]): 67%
- % Injury 20-40% (number of individuals) (PAT/Cry1F Arabidopsis; [5]): 0
- % Injury <20% (number of individuals) (PAT/Cry1F Arabidopsis; [5]): 0
- % Injury >40% (number of individuals) (PAT/Cry1F Arabidopsis; [5]): 5
- % Injury Ave (PAT/Cry1F Arabidopsis; [5]): 100%
- % Injury 20-40% (number of individuals) (PAT/Cry1F Arabidopsis; [6]): 0
- % Injury <20% (number of individuals) (PAT/Cry1F Arabidopsis; [6]): 0
- % Injury >40% (number of individuals) (PAT/Cry1F Arabidopsis; [6]): 5
- % Injury Ave (PAT/Cry1F Arabidopsis; [6]): 100%
- % Injury 20-40% (number of individuals) (PAT/Cry1F Arabidopsis; [7]): 0
- % Injury <20% (number of individuals) (PAT/Cry1F Arabidopsis; [7]): 0
- % Injury >40% (number of individuals) (PAT/Cry1F Arabidopsis; [7]): 5
- % Injury Ave (PAT/Cry1F Arabidopsis; [7]): 100%
- % Injury 20-40% (number of individuals) [1, 4]: 0
- % Injury <20% (number of individuals) [1, 4]: 0
- % Injury >40% (number of individuals) [1, 4]: 5
- % Injury Ave [1, 4]: 75%
- % Injury 20-40% (number of individuals) [1, 5]: 0
- % Injury <20% (number of individuals) [1, 5]: 0
- % Injury >40% (number of individuals) [1, 5]: 5
- % Injury Ave [1, 5]: 100%
- % Injury 20-40% (number of individuals) [1, 6]: 0
- % Injury <20% (number of individuals) [1, 6]: 0
- % Injury >40% (number of individuals) [1, 6]: 5
- % Injury Ave [1, 6]: 100%
- % Injury 20-40% (number of individuals) [1, 7]: 0
- % Injury <20% (number of individuals) [1, 7]: 0
- % Injury >40% (number of individuals) [1, 7]: 5
- % Injury Ave [1, 7]: 100%
- % Injury 20-40% (number of individuals) [2, 4]: 2
- % Injury <20% (number of individuals) [2, 4]: 13
- % Injury >40% (number of individuals) [2, 4]: 1
- % Injury Ave [2, 4]: 11%
- % Injury 20-40% (number of individuals) [2, 5]: 1
- % Injury <20% (number of individuals) [2, 5]: 10
- % Injury >40% (number of individuals) [2, 5]: 5
- % Injury Ave [2, 5]: 34%
- % Injury 20-40% (number of individuals) [2, 6]: 6
- % Injury <20% (number of individuals) [2, 6]: 5
- % Injury >40% (number of individuals) [2, 6]: 5
- % Injury Ave [2, 6]: 44%
- % Injury 20-40% (number of individuals) [2, 7]: 0
- % Injury <20% (number of individuals) [2, 7]: 0
- % Injury >40% (number of individuals) [2, 7]: 16
- % Injury Ave [2, 7]: 85%
- % Injury 20-40% (number of individuals) [3, 4]: 0
- % Injury <20% (number of individuals) [3, 4]: 0
- % Injury >40% (number of individuals) [3, 4]: 5
- % Injury Ave [3, 4]: 66%
- % Injury 20-40% (number of individuals) [3, 5]: 0
- % Injury <20% (number of individuals) [3, 5]: 0
- % Injury >40% (number of individuals) [3, 5]: 5
- % Injury Ave [3, 5]: 100%
- % Injury 20-40% (number of individuals) [3, 6]: 0
- % Injury <20% (number of individuals) [3, 6]: 0
- % Injury >40% (number of individuals) [3, 6]: 5
- % Injury Ave [3, 6]: 100%
- % Injury 20-40% (number of individuals) [3, 7]: 0
- % Injury <20% (number of individuals) [3, 7]: 0
- % Injury >40% (number of individuals) [3, 7]: 5
- % Injury Ave [3, 7]: 100%

Compound: CC(Oc1nc(F)c(Cl)cc1Cl)C(=O)O (stereo not drawn) [compound 91767]
- Rate relative to triclopyr (AAD-12 (v2)): 0.8
- Rate (mAU/min) (AAD-12 (v2)): 190 mAU/min

Compound: CC(Oc1ncc(Cl)cc1Cl)C(=O)O (stereo not drawn) [compound 66357]
- Rate relative to triclopyr (AAD-12 (v2)): 2.3
- Rate (mAU/min) (AAD-12 (v2)): 225 mAU/min

Compound: O=C(O)COc1nc(F)c(Cl)cc1Cl [compound 93833]
- Rate relative to triclopyr (AAD-12 (v2)): 0.5
- Rate (mAU/min) (AAD-12 (v2)): 118 mAU/min

Compound: CC(Oc1nc(Cl)c(Cl)cc1Cl)C(=O)O (stereo not drawn) [compound 116844]
- Rate relative to triclopyr (AAD-12 (v2)): 1.4
- Rate (mAU/min) (AAD-12 (v2)): 257 mAU/min
